Test results: patent US8986696B2, “Trans-capsular administration of p38 map kinase inhibitors into orthopedic joints” (DePuy Mitek, Inc., priority 2007, dated 2015)
Values joined by “and” are separate entries in the source; they are usually repeats but may differ in a detail not shown here. Equal values may be shown once.

Columns and labels:
[1] = system: rabbit anterior cruciate ligament transection (ACLT) model of osteoarthritis; experiment: ACLT model, preventative dosing regimen (Example IX); format: in vivo; design: key to Trochlear Groove Erosion of Cartilage, mean score / Tibial Plateau # of Osteophytes (Medial), mean score: gross grading scale; higher score = more joint damage; key to All Condylar Effects (0-18), mean: score 0-18; higher = more joint damage
Protocol: (§1) 130 Female New Zealand white rabbits underwent ACLT on the right knee. Intra-articular injections were administered to the operated knee once per week for five weeks beginning either one or six weeks after the ACLT. All animals were euthanized one week after the administration of the fifth injection. Gross observations were made on the knee joints according to a predetermined grading scale. The stifle joints were removed. Samples were preserved in 10% neutral buffered formalin. The stifle joints were photographed using high-resolution photography.
The ACLT was performed according to the ACLT model discussed above. Animals were group housed in pens on the floor and left untreated for one week to allow healing of the surgical site. Then, once weekly for five weeks, intra-articular injections were administered. One week following the last injection, the animals were sacrificed. The total in-life portion of the preventative dosing regimen was […]. Previous studies have confirmed that the six week time-point allows sufficient degeneration changes to occur.
(§2) The study design consisted of an n=10 per group. A total of 160 μl was injected at each administration.
(§3) At the time of sacrifice the following parameters were evaluated grossly (the scale follows in parenthesis):
Each parameter was given a score. The combination of all parameters gave a Total Score (0-52). Additionally, combinations of the three subsets of data yielded scores for All Trochlear Groove Effects (0-10), All Condylar Effects (0-18) and All Tibial Plateau Effects (0-24). […] […] The grades that compose this parameter are trochlear groove thickness and erosion, all the grades in All Condylar Effects, and all grades listed under Tibial Plateau. A higher score indicates more damage to the joint. A lower score indicates less damage or more cartilage preservation in the joint. Individual results for each parameter assessed were tabulated.

[2] = system: rabbit anterior cruciate ligament transection (ACLT) model of osteoarthritis; experiment: ACLT model, therapeutic dosing regimen (Example IX); format: in vivo; conditions: Therapeutic Dosing Regimen
Protocol: as §1
The ACLT was performed according to the ACLT model discussed above. Animals were group housed in pens on the floor and left untreated for six weeks to allow osteoarthritis to develop. Then, once weekly for five weeks, intra-articular injections were administered. One week following the last injection, the animals were sacrificed. The total in-life portion of this regimen was eleven weeks post-ACLT.
as §2, §3
Each parameter was given a score. The combination of all parameters gave a Total Score (0-52). Additionally, combinations of the three subsets of data yielded scores for All Trochlear Groove Effects (0-10), All Condylar Effects (0-18) and All Tibial Plateau Effects (0-24). Lastly, an […] was obtained. The score for […] ranges from 0 to 40. The grades that compose this parameter are trochlear groove thickness and erosion, all the grades in All Condylar Effects, and all grades listed under Tibial Plateau. A higher score indicates more damage to the joint. A lower score indicates less damage or more cartilage preservation in the joint. Individual results for each parameter assessed were tabulated.

[3] = mean gross score, 0 = Absent, 1 = Present
[4] = mean gross score, scale 0 = 0, 1 = 1, 2 = 2, 3 ≧ 2
[5] = mean gross score, scale 0 = no damage to 3 = severe

## OCCC#Cc1nc(-c2ccc(F)cc2)c(-c2ccncc2)n1CCCc1ccccc1 [JNJ 3026582 (RWJ 67657), 4-[4-(4-fluorophenyl)-1-(3-phenylpropyl)-5-(4-pyridinyl)-1H-imidazol-2-yl]-3-butyn-1-ol]
[1]
  All Cartilage Effects (0-40), mean: 4.3+1.8 and 4.3
  All Condylar Effects (0-18), mean: 1.6 ± 1.3 and 1.6
  All Tibial Plateau Effects (0-24), mean: 3.7
  All Trochlear Groove Effects (0-10), mean: 6.6
  Femoral Condyle % Surface Area Erosion (Lateral), mean score: 0.4 ± 0.3 and 0.4
  Femoral Condyle % Surface Area Erosion (Medial), mean score: 0.5 ± 0.4 and 0.5
  Femoral Condyle Depth of Erosion (Lateral), mean score: 0.4 ± 0.3 and 0.4
  Femoral Condyle Depth of Erosion (Medial), mean score: 0.3+0.3 and 0.3
  Femoral Condyle Presence of Clefts, mean score: 0
  Tibial Plateau # of Osteophytes (Lateral), mean score: 0.6
  Tibial Plateau # of Osteophytes (Medial), mean score: 1.7
  Tibial Plateau % Surface Area Erosion (Lateral), mean score: 0.7
  Tibial Plateau % Surface Area Erosion (Medial), mean score: 0
  Tibial Plateau Depth of Erosion (Lateral), mean score: 0.7
  Tibial Plateau Depth of Erosion (Medial), mean score: 0
  Tibial Plateau Presence of Clefts (Lateral), mean score: 0
  Tibial Plateau Presence of Clefts (Medial), mean score: 0
  Total Score (0-52), mean: 11.9 ± 2.2 and 11.9
  Trochlear Groove # of Osteophytes, mean score: 2.8
  Trochlear Groove Erosion of Cartilage, mean score: 1.3
  Trochlear Groove Osteophyte Size, mean score: 2.5
  Trochlear Groove Thickening, mean score: 0
[2]; mean gross score, 0 = 0, 1 < 25%, 2 = 25-50%, 3 > 50%
  Trochlear Groove Erosion of Cartilage: 1.9
[2]; [3]
  Tibial Plateau Presence of Clefts (Lateral): 0
  Tibial Plateau Presence of Clefts (Medial): 0
[2]; mean gross score, 0 = Normal, 1 = Thickened Areas
  Trochlear Groove Thickening: 0.3
[2]; mean gross score, 0 = absent, 1 = unicondylar, 2 = both condyles
  Femoral Condyle Presence of Clefts: 0
[2]; mean gross score, scale 0-5
  Femoral Condyle % Surface Area Erosion (Lateral): 2.4
  Femoral Condyle % Surface Area Erosion (Medial): 0.7
  Tibial Plateau % Surface Area Erosion (Lateral): 1.3
  Tibial Plateau % Surface Area Erosion (Medial): 0.4
[2]; [4]
  Tibial Plateau # of Osteophytes (Lateral): 0.9
  Tibial Plateau # of Osteophytes (Medial): 1.4
  Trochlear Groove # of Osteophytes: 2.9
[2]; mean gross score, scale 0 = 0, 1 ≦ 1 mm, 2 = 1-2 mm, 3 > 2 mm
  Trochlear Groove Osteophyte Size: 2.9
[2]; [5]
  Femoral Condyle Depth of Erosion (Lateral): 1.7
  Femoral Condyle Depth of Erosion (Medial): 0.8
  Tibial Plateau Depth of Erosion (Lateral): 0.9
  Tibial Plateau Depth of Erosion (Medial): 0.2
[2]; mean, 0-10, 10 = max damage
  Combination Scores: All Trochlear Groove Effects: 8.0
[2]; mean, 0-18, 18 = max damage
  Combination Scores: All Condylar Effects: 5.6
[2]; mean, 0-24, 24 = max damage
  Combination Scores: All Tibial Plateau Effects: 5.3
[2]; mean, 0-40, 40 = max damage
  Combination Scores: All Cartilage Effects: 10.8
[2]; mean, 0-52, 52 = max damage
  Combination Scores: Total Score: 18.9
